# Test results: patent US11654136B2, “Phosphoinositide 3-kinase inhibitor with a zinc binding moiety” (Curis, Inc., priority 2011, dated 2023)
# Tests used:
# [1] = test system: H2122 (human NSCLC cell line) xenograft tumors; experiment: H2122 xenograft tumor model; type: in vivo, nude mice
# Method: SU-DHL4 (diffuse large B-cell lymphoma cell line), H2122 (human NSCLC cell line), Daudi (non-Hodgkin's lymphoma cell line), and OPM2 (multiple myeloma tumor cell line) cells were implanted into either nude or Scid (severe […] immune-deficient) mice. […]. […] The control groups were treated with vehicle using the same dosing schedule as the corresponding active group.
# In another study, the Daudi tumor group was dosed at 50 mg/Kg twice a day for five days per week. […] The SU-DHL4 tumor group was dosed at 100 mg/Kg orally or 50 mg/Kg intravenously.
# Tumors were measured during the study period with an electronic caliper, and body weights were measured twice a week. The following formula was used to calculate the tumor volume: […] Percentage of tumor volume change was used to describe compound activity over the treatment period.
# [2] = test system: HDACs (HeLa cell nuclear extracts); experiment: HDAC activity assay (Biomol Color de Lys); type: biochemical
# Method: HDAC inhibitory activity was assessed using the Biomol Color de Lys system (AK-500, Biomol, Plymouth Meeting, Pa.). Briefly, HeLa cell nuclear extracts were used as a source of HDACs. Different concentrations of test compounds were serially diluted in dimethylsulfoxide (DMSO) and added to HeLa cell nuclear extracts in the presence of a colorimetric artificial substrate. Final assay condition contained 50 mM Tris/C1, pH 8.0, 137 mM NaCl, 2.7 mM KCl and 1 mM MgCl2. Reactions were carried in room temperature (25° C.) for 1 hour before addition of developer for termination. Relative enzyme activity was measured in the WALLAC Victor II 1420 microplate reader as fluorescence intensity (excitation: 350-380 nm; emission: 440-460 nm). Data were analyzed using GraphPad Prism (v4.0a) with a sigmoidal dose response curve fitting for IC50 calculation.
# [3] = test system: HDAC activity (Ac-H3, Ac-Tub, Ac-p53, p53, p21) in H460 cells; experiment: Western blot / in-cell-western of HDAC markers in H460 cells; type: cell-based
# Method: Cell extracts were prepared in the presence of SDS and 2-mercaptoethanol and resolved in polyacrylamide gels. Proteins were transferred to nitrocellulose filter and blotting was done using standard procedures with blocking solutions (Li-Cor Bioscience) containing the indicated primary antibody. Primary antibodies against p-EGFR, EGFR, p-HER2, HER2, p-HER3, HER3, p-MET, MET, p-bRaf, p-cRaf, pMEK, MEK, p-ERK, ERK and tubulin were purchased from Cell Signaling Technology. Secondary antibody conjugated with IRdye 680, 800CW were used and the signal was detected with Li-Cor Odyssey Imager.
# Immunocytochemistry was performed on cells grown in monolayer culture that were treated as indicated in the figure legends and then fixed in 4% (w/v) paraformaldehyde. After washing in 1×PBS, immunostaining was performed in Li-Cor blocking solution containing the indicated primary antibodies and IRDye 680- or 800CW-conjugated secondary antibodies. For in-cell-western, a Li-Cor Odyssey infrared imager was used for detection and quantification of results.
# Cells were treated with DMSO alone (vehicle control) or containing test compounds for 1 h before Western blot or in-cell-western was performed.
# [4] = Pharmacokinetic study in rats; type: in vivo; conditions: rat, single oral gavage 20 mg/kg, male Sprague-Dawley rats, plasma
# Method: The resulting clear yellow solution was stored at room temperature until picked up for dosing.
# Three male Sprague-Dawley rats from Charles River Laboratories were used in this study. High fat diet (VHFD, D12492i) from Research Diets Inc. were provided ad libitum throughout the in-life portion of the study.
# Blood samples (approximate volume 150 μL) were collected tail vein at 0.25, 0.5, 1, 3, 6, and 24 hours postdose. Blood samples were placed into tubes containing sodium heparin and centrifuged at 8000 rpm for 6 minutes at 4° C. to separate plasma from the samples. Following centrifugation, the resulting plasma was transferred to clean tubes and stored frozen at −80° C. pending bioanalysis.
# The pharmacokinetic parameters were determined from mean concentration-time data in the test subjects. A compartmental modeling of WINNONILIN® Professional 5.2. was used to calculate parameters. Any concentrations that were below the limit of quantitation (lower limit of quantitation=1 ng/mL) were omitted from the calculation of parameters in individual animals.
# [5] = test system: PI3K-AKT-mTOR pathway, RAF-MEK-ERK pathways, RTK protein levels, p53 and p21; experiment: Pharmacodynamics, Western blots of Daudi tumor tissue extracts; type: in vivo, Scid mice; conditions: single dose 25, 50 and 100 mg/kg; Daudi tumors
# Method: Protein was extracted from tumor tissues using a Tissuelyser (Qiagen, Valencia, Calif.) according to the manufacturer's instructions. 30 ug of protein was routinely used for WB analysis as described above. Cell lysates were resolved on NuPAGE Novex 4-12% Bis-Tris gels (Invitrogen) and transferred to nitrocellulose membranes (Bio-Rad Laboratories, Hercules, Calif.). The blots were probed with various primary antibodies overnight at 4° C. GAPDH (glyceraldehyde 3-phosphate dehydrogenase, 1:30,000, Abcam, Cambridge, Mass.) was used as an internal control for each assay. Membranes were then incubated with infrared labeled secondary antibodies (1:10000) conjugated-IR Dye-800 (Rockland Immunochemicals, Inc. Gilbertsville, Pa.) or conjugated-Alexa 680 (Invitrogen). Membranes were imaged with the Odyssey Infrared Imaging System (Li-Cor Biotechnology, Lincoln, Nebr.).
smiles,measurement,setting,value
"COc1ccc(-c2nc(N3CCOCC3)c3sc(CN(C)c4ncc(C(=O)NO)cn4)cc3n2)cn1 [Compound 1, N-hydroxy-2-(((2-(6-methoxypyridin-3-yl)-4-morpholinothieno[3,2-d]pyrimidin-6-yl)methyl)(methyl)amino)pyrimidine-5-carboxamide]",Body weight,"[1]; oral 75 mg/Kg twice a day, H2122 tumor-bearing nude mice",body weight loss
same,Tumor growth,"[1]; oral 75 mg/kg twice a day, then 50 mg/Kg twice a day from Day-11, five days per week",efficacious
same,IC50,[2],< 100 nM
same,"Levels of acetylated-tubulin, histone 3, p53 and p21 versus dose",[3],"increases levels of acetylated-tubulin (FIG. 7B), acetylated histone 3 (FIG. 7C), acetylated p53 (FIG. 7D), and acetylated p21 (FIG. 7E) in a dose-dependent manner"
same,Total p53 and p21 content,[3],upregulates total p53 and p21 content
same,"Levels of acetylated histone 3, tubulin and p53","[3]; 1 μmon, 1 h","increases the levels of acetylated histone 3 (Ac-H3), tubulin (Ac-Tub), and p53 (Ac-p53)"
same,AUC(0-inf),[4],164 ng·h/mL
same,Cmax,[4],39.5 ng/mL
same,Tmax,[4],6 min
same,Half-life,[4]; read-out: half-life (T1/2) (converted),11.7 h
same,Pharmacodynamic markers in tumor tissue (Western blots),[5],"inhibits the PI3K-AKT-mTOR pathway, suppresses the RAF-MEK-ERK pathways, downregulates RTK protein levels and up-regulates tumor suppressor p53 and p21 levels"
